In PubChem BioAssay (NCI):
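Values below derive from 48-hour exposures of cells grown in 96-well plates, with endpoints linearly interpolated between the two concentrations bracketing the appropriate inhibition level. TGI: concentration producing complete growth inhibition.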

How the values were obtained:
Test in all cases: NCI tumour cell line growth inhibition, 48 h
[1] = tested on: 786-0 renal
[2] = tested on: A549 NSCLC
[3] = tested on: ACHN renal
[4] = tested on: CAKI-1 renal
[5] = tested on: CCRF-CEM leukemia
[6] = tested on: COLO 205 colon
[7] = tested on: DLD-1 colon
[8] = tested on: DMS 114 small cell lung
[9] = tested on: EKVX NSCLC
[10] = tested on: HCC-2998 colon
[11] = tested on: HCT-15 colon
[12] = tested on: HOP-92 NSCLC
[13] = tested on: HT29 colon
[14] = tested on: IGROV1 ovarian
[15] = tested on: K-562 leukemia
[16] = tested on: KM12 colon
[17] = tested on: KM20L2 colon
[18] = tested on: LXFL 529 NSCLC
[19] = tested on: M14 melanoma
[20] = tested on: M19-MEL melanoma
[21] = tested on: MALME-3M melanoma
[22] = tested on: MOLT-4 leukemia
[23] = tested on: NCI-H23 lung
[24] = tested on: NCI-H522 lung
[25] = tested on: OVCAR-3 ovarian
[26] = tested on: OVCAR-4 ovarian
[27] = tested on: OVCAR-5 ovarian
[28] = tested on: OVCAR-8 ovarian
[29] = tested on: RXF 393 renal
[30] = tested on: SF-268 CNS
[31] = tested on: SF-295 CNS
[32] = tested on: SF-539 CNS
[33] = tested on: SK-MEL-2 melanoma
[34] = tested on: SK-MEL-28 melanoma
[35] = tested on: SK-MEL-5 melanoma
[36] = tested on: SK-OV-3 ovarian
[37] = tested on: SN12C renal
[38] = tested on: SNB-19 CNS
[39] = tested on: SNB-78 CNS
[40] = tested on: SR leukemia
[41] = tested on: SW-620 colon
[42] = tested on: TK-10 renal
[43] = tested on: U251 CNS
[44] = tested on: UACC-62 melanoma
[45] = tested on: UO-31 renal
[46] = tested on: XF 498 CNS
[47] = tested on: HCT-116 colon
[48] = tested on: HL-60(TB) leukemia
[49] = tested on: HOP-62 NSCLC
[50] = tested on: NCI-H460 lung
[51] = tested on: RPMI-8226 leukemia
[52] = tested on: SNB-75 CNS
[53] = tested on: UACC-257 melanoma
[54] = tested on: A498 renal
[55] = tested on: DMS 273 small cell lung
[56] = tested on: LOX IMVI melanoma
[57] = tested on: NCI-H226 lung

Measured: TGI

COc1cccc(/C=C(\NC(C)=O)c2nc3ccc(Cl)cc3[nH]2)c1
> 100 µM: [1] | [2] | [3] | [4] | [5] | [6] | [7] | [8] | [9] | [10] | [11] | [12] | [13] | [14] | [15] | [16] | [17] | [18] | [19] | [20] | [21] | [22] | [23] | [24] | [25] | [26] | [27] | [28] | [29] | [30] | [31] | [32] | [33] | [34] | [35] | [36] | [37] | [38] | [39] | [40] | [41] | [42] | [43] | [44] | [45] | [46]

COc1ccc(N2C(Cl)C(=O)C2c2c[nH]c3ccccc23)cc1 (stereo not given)
> 100 µM: [2] | [5] | [6] | [8] | [9] | [47] | [48] | [49] | [12] | [13] | [14] | [15] | [16] | [17] | [18] | [19] | [20] | [21] | [22] | [23] | [50] | [24] | [25] | [26] | [27] | [28] | [51] | [29] | [30] | [31] | [32] | [33] | [34] | [35] | [36] | [37] | [38] | [52] | [40] | [41] | [42] | [43] | [53] | [44] | [45] | [46]

COC1=CC(=O)[C@]2(C)[C@H](C1=O)C(C)[C@H]2c1ccc(OC)cc1 (stereo not given in full)
> 100 µM: [1] | [54] | [2] | [3] | [4] | [5] | [6] | [7] | [55] | [9] | [10] | [11] | [48] | [49] | [12] | [13] | [14] | [15] | [16] | [56] | [18] | [19] | [20] | [21] | [22] | [57] | [23] | [50] | [24] | [25] | [26] | [27] | [28] | [51] | [29] | [30] | [31] | [32] | [33] | [34] | [35] | [36] | [38] | [52] | [39] | [40] | [41] | [42] | [43] | [53] | [44] | [45] | [46]
